Data: publication PMC11790956, “A microscale thermophoresis-based enzymatic RNA methyltransferase assay enables the discovery of DNMT2 inhibitors” (Communications Chemistry, 2025)

What was measured:
DNMT2-tRNA complex = molecular target: T1, DNMT2-tRNA complex (Homo sapiens, UniProt O14717); assay: Electrophoretic mobility shift assay (EMSA) of the DNMT2-tRNA complex; format: binding; settings: 500 µM compound, DNMT2 10 µM, tRNAAsp 5 µM
T1 construct: made in house
T1 sequence (O14717 1-391): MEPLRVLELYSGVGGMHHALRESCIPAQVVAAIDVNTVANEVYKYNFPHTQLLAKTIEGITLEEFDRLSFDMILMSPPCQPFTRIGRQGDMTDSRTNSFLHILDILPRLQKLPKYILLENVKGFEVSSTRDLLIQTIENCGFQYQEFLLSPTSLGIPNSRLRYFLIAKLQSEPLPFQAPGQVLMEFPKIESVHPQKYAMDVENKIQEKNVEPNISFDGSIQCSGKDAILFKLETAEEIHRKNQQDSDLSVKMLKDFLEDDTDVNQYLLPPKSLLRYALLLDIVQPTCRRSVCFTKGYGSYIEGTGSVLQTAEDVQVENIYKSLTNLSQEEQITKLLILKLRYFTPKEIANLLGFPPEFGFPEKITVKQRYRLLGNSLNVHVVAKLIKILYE
Experimental: We speculated these hits might bind very weakly to the tRNA-DNMT2 interaction site and by this inhibit DNMT2 activity. To test this hypothesis, we performed an electrophoretic mobility shift assay (EMSA) using tRNA^Asp (5 µM) and DNMT2 (10 µM) compared to the tRNA sample in absence of the DNMT2 protein (SI Fig. 4)[33]. […] Subsequently, we treated the DNMT2-tRNA complex with all hit compounds at 500 µM and observed their potential to disrupt the complex.
DNMT2 (10 µM) was mixed with tRNA^Asp (5 µM) and treated with 500 µM of the respective screening hit compound in DNMT2 assay buffer (100 mM Tris-HCl, pH 8, 100 mM NH4OAc, 0.1 mM EDTA, 10 mM MgCl2, 10 mM DTT). Subsequently, reaction samples (each 5 µL) were loaded to a native 10% polyacrylamide gel and separated electrophoretically (1 h, 180 V) in 1x TBE. RNA was stained in situ with 1x GelRed and PAGE analysis was conducted by fluorescence scanning at an excitation wavelength of 532 nm (Amersham Typhoon 9400). Positive control: DNMT2+tRNA (band at high molecular weights); negative control: only tRNA (band at low molecular weights).
SI Figure 4. Electrophore?c mobility shi? assay (EMSA) to inves?gate the inﬂuence of screening hits on the DNMT2-tRNA complex forma?on. D NMT2 (10 µ M ) was mixe d w it h t RNAAsp (5 µM) and treated with 50 0 µM of the respec?ve screening hit compound in DNMT2 assay buﬀer. All reac?on samples (each 5 µL) were loaded to a na?ve 10% polyacr ylamide gel and separated electrophore?cally (1 h, 1 80 V) in 1x TBE. RNA was stained in situ with 1x GelRed and PAGE analysis was conducted by ﬂuorescence scanning at an excita?on wavelength of 532 nm (Amersham Typhoon 9400). Po s i ? ve control: DNMT2+tRNA (band at high molecular weights); nega?ve control: only tRNA (band at low

METTL3/14 = molecular target: T2, METTL3/14 (Homo sapiens, UniProt Q86U44); assay: METTL3/14 enzymatic split aptamer MST assay; format: biochemical; settings: 500 µM of hit compound, Fig. 5D
T2 construct: purchased BPS Bioscience BPS-100105
T2 sequence (Q86U44 2-580 limits assumed): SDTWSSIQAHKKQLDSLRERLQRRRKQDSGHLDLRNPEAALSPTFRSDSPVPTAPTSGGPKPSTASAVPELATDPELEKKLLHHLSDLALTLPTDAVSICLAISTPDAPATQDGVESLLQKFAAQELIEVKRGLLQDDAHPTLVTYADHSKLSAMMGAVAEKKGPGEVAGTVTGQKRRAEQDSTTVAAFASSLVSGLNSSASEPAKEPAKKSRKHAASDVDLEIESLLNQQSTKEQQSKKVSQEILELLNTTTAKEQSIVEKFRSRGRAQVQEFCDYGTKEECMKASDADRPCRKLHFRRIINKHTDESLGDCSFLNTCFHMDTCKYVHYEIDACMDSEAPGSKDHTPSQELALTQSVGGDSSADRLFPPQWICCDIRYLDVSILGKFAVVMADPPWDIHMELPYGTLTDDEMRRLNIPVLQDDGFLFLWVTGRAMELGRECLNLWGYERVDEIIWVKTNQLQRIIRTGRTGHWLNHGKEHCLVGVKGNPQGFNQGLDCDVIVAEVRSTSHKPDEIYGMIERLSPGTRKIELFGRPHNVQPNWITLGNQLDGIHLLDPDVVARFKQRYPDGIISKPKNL
T2 sequence (Q9HCE5 2-456 partner limits assumed): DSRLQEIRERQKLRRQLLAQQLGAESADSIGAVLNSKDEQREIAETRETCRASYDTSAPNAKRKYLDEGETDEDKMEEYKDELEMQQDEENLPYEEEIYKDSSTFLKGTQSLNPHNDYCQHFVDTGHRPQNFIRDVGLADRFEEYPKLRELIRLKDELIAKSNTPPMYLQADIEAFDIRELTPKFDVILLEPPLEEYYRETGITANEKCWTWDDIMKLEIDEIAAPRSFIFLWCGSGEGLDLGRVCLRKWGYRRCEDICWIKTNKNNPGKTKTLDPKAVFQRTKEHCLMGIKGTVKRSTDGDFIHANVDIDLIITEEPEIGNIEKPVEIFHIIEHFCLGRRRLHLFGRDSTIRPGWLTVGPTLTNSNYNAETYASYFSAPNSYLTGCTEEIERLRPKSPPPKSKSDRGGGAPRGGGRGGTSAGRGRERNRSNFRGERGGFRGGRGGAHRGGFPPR
Experimental: Specifically, we studied the m^6A MTase METTL3/14 and the m^7G MTase S. aureus TrmD.
For MTase assay detection by MST, enzyme reaction mixtures with a total volume of 10 µL per single treatment condition were prepared and incubated for the desired reaction times. Inhibitors were added from corresponding DMSO stocks to a final DMSO concentration of max. […] Afterward, reactions were quenched at a given reaction time by the addition of 1 µL sodium dodecyl sulfate (SDS, solution, 3% in water) per 10 µL reaction mixture and mixed well by pipetting. […]
MST experiments were carried out in at least technical triplicates using a Monolith NT.115 instrument (NanoTemper Technologies) using Monolith standard capillaries and the blue excitation laser setup. […] General settings were applied for all MST experiments as follows: manual temperature control: 25 °C, fluorescence measurement before MST: 4 s, MST (IR laser) on: 20 s, fluorescence after MST: 2 s, delay: 25 s. The laser power was adjusted to optimize the signal-to-noise ratio and the fluorescence signal. LED and MST power settings were chosen individually for each sample by adjusting the LED power to yield fluorescence signals of at least 300 units (blue laser) or 3000 units (red laser) and the MST power to achieve an appropriate thermophoretic response (standard setting: medium MST power). […]

## C=CC(=O)NC(=O)NC12CC3CC(CC(C3)C1)C2 [Cpd 11, 1-(adamantan-1-yl)-3-(prop-2-enoyl)urea]
DNMT2-tRNA complex
  influence on DNMT2-tRNA complex formation: do not inﬂuence the complex
METTL3/14
  inhibition of METTL3/14 (selectivity panel): did not inhibit
